Laboratory results: PMC8748556, “CXCR4 peptide-based fluorescence endoscopy in a mouse model of Barrett’s esophagus” (EJNMMI Research, 2022)
Square brackets hold non-standard residues; d marks the D form. Side chains are listed from the residue outwards. Peptide text beside a SMILES is read from it. * marks the point of attachment. X1 = C[N+]1=C(C=CC=CC=C2N(CCCCCC(=O)*)c3ccc(S(=O)(=O)O)cc3C2(C)C)C(C)(C)c2cc(S(=O)(=O)[O-])ccc21; dTyr(3-I) = N[C@H](Cc1ccc(O)c(I)c1)C(=O)O; 2Nal = N[C@@H](Cc1ccc2ccccc2c1)C(=O)O; dNMeOrn = CN[C@H](CCCN)C(=O)O; 4Abz = Nc1ccc(C(=O)O)cc1; dDap = NC[C@@H](N)C(=O)O

Assays:
[1] = system: dysplastic lesions of L2-IL1B mice; experiment: Fluorescence molecular endoscopy; type: in vivo; settings: L2-IL1B mice 12-14 months, 60 nmol i.v., 4 h p.i.; lesion vs normal surrounding esophageal tissue; mean ± SEM, 3 mice, 2-5 lesions per mouse
Procedure: Three L2-IL1B mice (12–14 months old) were used for fluorescence molecular endoscopy before ex vivo imaging. Endoscopy was performed after sacrificing the mice at 4 h p.i. of MK007 using a homemade system previously developed by our group and optimized for small animal imaging. Briefly, the endoscopy system consisted of a flexible fiberscope (Micrendo-Fiberskop, SCHÖLLY FIBER OPTIC GMBH, Denzlingen, Germany) where both white light (provided by a 250-W halogen lamp, KL-2500 LCD, Schott AG, Mainz, Germany) and fluorescence (fiber coupled continuous wave (CW) laser diode emitting at 670 nm, SLD1332V, Thorlabs, Newton, NJ, USA) are coupled, allowing simultaneous color and near-infrared (NIR) fluorescence endoscopy. Videos in color and fluorescence channel were recorded using a custom-made endoscopy software and stored in AVI file format. Two NaCl-injected IL1B mice (17 and 12 months old) were used as negative controls for the validation of the endoscopy system. […] For quantification of Sulfo-Cy5 signal, single frames or frame sequences showing dysplastic lesions were used and the fluorescence signal from the target lesion and the background were quantified with ImageJ by handmade ROIs. […] The TBR was then calculated by dividing the mean fluorescence intensity from the lesion by the one from the background region.

[2] = system: dysplastic lesions at the squamocolumnar junction of L2-IL1B mice; type: in vivo, mouse
Procedure: Five 12-to-16-month-old IL1B mice were intravenously injected into the tail vein with 60 nmol of MK007 diluted in 0.9% NaCl (tot. vol. 150 µL; 400 nmol/mL) and sacrificed 4 h post injection (p.i.) by isoflurane overdosage. One non-injected 12-month-old IL1B mouse served as negative control. The whole stomach and esophagus were then excised and imaged using a homemade ex vivo wide-field fluorescence imaging system. Briefly, the fluorescence images were acquired at different time exposure (0.2, 0.5, 1 and 2 s), using a 670 nm diode laser (B&W tek, Newark, DE, USA) and appropriate bandpass filter (780/10). A back illuminated EM-CCD camera (iXon DU888, Andor, Belfast, Northern Ireland, UK) was then used to capture the signal. The target-to-background ratio (TBR) of the stomach was performed by dividing the fluorescence signal in the squamocolumnar junction (SCJ) area (target lesion) with the adjacent normal gastric glandular tissue (background area) using ImageJ/Fiji software. In the organs, the signal quantification was performed by calculating the corrected total cell fluorescence/CTCF = integrated density – [(area * AVERAGE (mean background)]. For CTCF, three regions of interest (ROIs) without any tissue were used as background.

[3] = type: physicochemical; settings: pH 7.4
Procedure: Given promising data obtained with MK007 in our preclinical mouse model, we performed preliminary in vitro studies on human cell lines. Competition binding studies (IC50) were performed using Jurkat cells (4 × 10^5 cells/sample) and [^125I]FC131 as radioligand. […] To determine the log P of MK007, the corresponding non-iodinated precursor was radioiodinated using the Iodogen method, and the octanol/PBS partition coefficient of [^125I]MK007 was determined using a modified shake-flask-method.

Compound: C[C@@H](NC(=O)[C@@H](CCCNC(=N)N)NC(=O)[C@@H](CN)NC(=O)CCCCCN1C(=CC=CC=CC2=[N+](C)c3ccc(S(=O)(=O)[O-])cc3C2(C)C)C(C)(C)c2cc(S(=O)(=O)O)ccc21)C(=O)Nc1ccc(C(=O)NCCC[C@@H]2C(=O)N[C@@H](CCCNC(=N)N)C(=O)N[C@@H](Cc3ccc4ccccc4c3)C(=O)NCC(=O)N[C@H](Cc3ccc(O)c(I)c3)C(=O)N2C)cc1 [MK007] (cyclo([dTyr(3-I)][dNMeOrn]([4Abz-dA-dR-dDap-X1])R[2Nal]G))
- Target-to-background ratio (TBR), fluorescence endoscopy [1]: 2.13 ± 0.17
- Target-to-background ratio (TBR), ex vivo wide-field imaging ([2]; L2-IL1B mice 12-16 months, 60 nmol i.v., 4 h p.i., SCJ vs adjacent normal gastric glandular tissue, mean ± SEM, n = 5): 2.45 ± 0.24
- mean target-to-background ratio in dysplastic lesions (ex vivo imaging and endoscopy) ([2]; L2-IL1B mice, 4 h after injection, abstract statement covering ex vivo imaging and endoscopy): > 2
- log P [3]: − 1.83 ± 0.02
